Experimental data as given in patent US6040320A, “2-substituted imidazoles useful in the treatment of inflammatory diseases” (Ortho-McNeil Pharmaceutical, Inc., priority 1998, dated 2000).
Where two headings read alike, the source gives them in different places.

Assays:
[1] = target: T1, p38 (Homo sapiens, UniProt Q16539); assay: in vitro inhibition of p38 (CPSB): purified recombinant 6xHis-p38, myelin basic protein substrate, 33P-ATP; format: biochemical
T1 construct: 6xHis (N); made in house; host or cells: E. coli
Method: Compounds of the invention were measured for their ability to inhibit the activity of p38 by the following in vitro assay.
A solution (38 μL) of purified recombinant p38 (where the amount of enzyme was determined empirically considering the linear range of the assay and the acceptable signal to noise ratio; 6xHis-p38 expressed in E.coli), myelin basic protein substrate (also determined empirically), a buffer of pH 7.5 (Hepes:25 mM, MgCl2 :10 mM, MnCl2 :10 mM) were added to 92 wells of a 96-well round bottom polypropylene plate. The remaining wells were used for control ("CTRL") and background ("BKG"). The CTRL was prepared with the enzyme, substrate buffer and 2% DMSO, and the BKG was prepared with substrate buffer and 2% DMSO. A solution (12 μL) of the test compound in DMSO (compounds were diluted to 125 μM in 10% DMSO/H2 O and assayed at 25 μM where the final DMSO concentration was 2%) was added to the testing wells. The ATP/^33 P-ATP solution (10 μL: containing 50 μM unlabeled ATP and 1 μCi ^33 P-ATP) was added to all wells and the completed plates were mixed and incubated at 30° C. for 30 min. Icecold 50% TCA/10 mM sodium phosphate (60 μL) were added to each well and the plates were kept on ice for 15 min. The contents of each well were transferred to the wells of a 96-well filterplate (Millipore, MultiScreen-DP) and the filterplate was placed on a vacuum manifold, fitted with a waste collection tray. The wells were washed five times with 10% TCA/10 mM sodium phosphate (200 μL) under vacuum. MicroScint-20 scintillant was added, the plates were sealed using Topseal-S sheets and counted in a Packard TopCount scintillation counter using a ^33 P liquid program with color quench correction, where the output is in color quench-corrected cpm. The % inhibition of the test compounds was calculated by the following formula: % inhibition=[1-(sample-BKG)/(CTRL-BKG)]×100.
Although compounds were initially tested at 25 μM, if warranted the compounds were tested at 4-fold increments above and below that concentration. In addition, lC50 s were calculated for some compounds using the Deltagraph 4-parameter curve fitting program.

[2] = system: TNF-α; assay: in vitro whole cell assay: LPS-stimulated TNF-α production in PBMC (ELISA); format: cell-based, human; conditions: read-out: TNF-α IC50
Method: In addition to the enzyme assay, the compounds of the invention were tested in an in vitro whole cell assay using peripheral blood mononuclear cells ("PBMC") which were obtained from human blood as follows. Freshly obtained venous blood was anticoagulated with heparin, diluted with an equal volume of phosphate buffered saline ("PBS") and placed in a sterile tube or other container. Aliquots (30 mL) of this mixture were transferred to centrifuge tubes which were underlaid with Ficoll-Hypaque (15 mL). The prepared tubes were centrifuged at 400×g without braking for 30 min at room temperature. Approximately 1/2 to 2/3 of the platelet layer above the mononuclear cell band was removed with a pipet. The majority of the mononuclear cell layer was carefully removed using a pipet and these PBMCs were diluted with PBS and spun at 600×g for 15 min. The resulting PBMCs were washed with another portion of PBS and spun at 400×g for 10 min at room temperature. The recovered pellets were diluted in low endotoxin RPMI/1% FCS culture medium and gave a cell concentration of 0.5-2.0 X 10^6 PMBC/mL. A small volume of the suspension was removed for counting on a hemocytometer and the remaining preparation was centrifuged at 200×g for 15 min at room temperature. The recovered pelleted PMBC were resuspended in RPMI/1% FCS to a concentration of 1.67×10^6 /mL.
To run the assay, the PBMC suspension (180 μL) was transferred to duplicate wells of a 96-well flat-bottom microtiter plate and incubated for 1 h at 37° C. A solution of test compound (10 μL: prepared at 20×the desired final concentration) was added to each well and the plate was incubated for 1 h at 37° C. A solution (10 μL) of LPS in RPMI/1% FCS (200 ng/mL) was added and the wells were incubated overnight at 37° C. The supernate (100 μL) was removed from each well and diluted with RPMI/1% FCS (400 μL). The samples were analyzed for TNF-α using a commercial ELISA kit (Genzyme). […] Since imidazoles which are unsubstituted at the 1-position are subject to tautomerization, the substituents listed for R1 and R2 are interchangeable when R3 is hydrogen.

T1 sequence (Q16539 whole entry): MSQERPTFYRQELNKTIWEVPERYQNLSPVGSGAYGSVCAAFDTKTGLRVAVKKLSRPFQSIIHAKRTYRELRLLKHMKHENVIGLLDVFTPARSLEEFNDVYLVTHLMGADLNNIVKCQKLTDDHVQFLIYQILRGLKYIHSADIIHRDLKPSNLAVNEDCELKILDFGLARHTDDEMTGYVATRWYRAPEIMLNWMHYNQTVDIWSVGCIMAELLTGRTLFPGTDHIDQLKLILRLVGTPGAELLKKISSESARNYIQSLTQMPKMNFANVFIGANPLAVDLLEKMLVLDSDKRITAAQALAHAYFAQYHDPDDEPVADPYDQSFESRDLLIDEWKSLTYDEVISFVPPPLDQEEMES

| SMILES | IC50 ([2]; human PBMC, LPS) [nM] | further results |
| --- | --- | --- |
| CCCSc1nc(-c2ccncc2)c(-c2ccc(F)cc2)[nH]1 [Compound 1, 5(4)-(4-Fluorophenyl)2-(1-propyl)thio-4(5)-(4-pyridyl)-5(4)-imidazole] |  | IC50 [1]: 680 nM |
| O=C1c2ccccc2C(=O)N1CCCSc1nc(-c2ccc(F)cc2)c(-c2ccncc2)[nH]1 [Compound 2, 5(4)-(4-Fluorophenyl)-2-(3-phthalimidoprop-1-yl)thio-4(5)-(4-pyridyl)-imidazole] |  | IC50 ([2]; Homo sapiens, PBMC): 1000 nM; IC50 [1]: 790 to 1800 nM |
| NCCCSc1nc(-c2ccc(F)cc2)c(-c2ccncc2)[nH]1 [Compound 3, 2-(3-Aminoprop-1-yl)thio-5(4)-(4-fluorophenyl)4(5)-(4-pyridyl)-imidazole] |  | CPSB % inhibition ([1]; @ 20 μm): 26% |
| CNC(=O)Sc1nc(-c2ccc(F)cc2)c(-c2ccncc2)[nH]1 [Compound 5, 5(4)-(4-Fluorophenyl)-2-(N-methylaminocarbonyl)thio-4(5)-(4-pyridyl)-imidazole] |  | CPSB % inhibition ([1]; @ 20 μm): 81% |
| C[Si](C)(C)CCOCn1c(C(=O)CCCO)nc(-c2ccncc2)c1-c1ccc(F)cc1 [Compound 9, 4-Hydroxy-1-[5-(4-fluorophenyl)-4-(4-pyridyl)-1-(2-(trimethylsilyl)ethoxymethyl)imidazol-2-yl]butanone] |  | IC50 ([2]; Homo sapiens, PBMC): > 10000 nM |
| OCCSCc1nc(-c2ccncc2)c(-c2ccc(F)cc2)[nH]1 [Compound 13, 5-(4-Fluorophenyl)-2-[4-hydroxy-2-thiabut-1-yl]4-(4-pyridyl)-imidazole] | 80 |  |
| CC(=O)OCCCCc1nc(-c2ccncc2)c(-c2ccc(F)cc2)[nH]1 [Compound 16a, 4-[5(4)-(4-Fluorophenyl)-(5)-(4-pyridyl)imidazol-2-yl]butayl acetate] |  | IC50 [1]: 1420 nM |
| CC(=O)OCCCCc1nc(-c2ccncc2)c(-c2ccc(F)cc2)n1C(=O)OCc1ccccc1 [Compound 18] |  | CPSB % inhibition ([1]; @ 5 μm): 10% |
| CCOC(CCSc1nc(-c2ccncc2)c(-c2ccc(F)cc2)[nH]1)OCC [Compound 20] |  | IC50 [1]: 2000 nM |
| Fc1ccc(-c2[nH]c(S)nc2-c2ccncc2)cc1 [Compound 21] |  | IC50 [1]: 1900 nM |
| CC(C)Sc1nc(-c2ccncc2)c(-c2ccc(F)cc2)[nH]1 [Compound 22] |  | IC50 [1]: 470 nM |
| Fc1ccc(-c2[nH]c(SCC3CC3)nc2-c2ccncc2)cc1 [Compound 23] |  | IC50 [1]: 1000 to 1800 nM |
| O=C(NCCCSc1nc(-c2ccc(F)cc2)c(-c2ccncc2)[nH]1)c1ccc2ccccc2c1 [Compound 31] | 275 |  |
| CS(=O)(=O)NCCCSc1nc(-c2ccc(F)cc2)c(-c2ccncc2)[nH]1 [Compound 32] | 150 |  |
| O=C1c2ccccc2C(=O)N1CCSCc1nc(-c2ccc(F)cc2)c(-c2ccncc2)[nH]1 [Compound 33] | 200 |  |
| CC(=O)NCCCSc1nc(-c2ccc(F)cc2)c(-c2ccncc2)[nH]1 [Compound 34] | 200 |  |
| CCCSCc1nc(-c2ccc(F)cc2)c(-c2ccncc2)[nH]1 [Compound 35] | 30 |  |
| C[Si](C)(C)CCOCn1c(CO)nc(-c2ccncc2)c1-c1ccc(F)cc1 [Compound 36] |  | CPSB % inhibition ([1]; @ 5 μm): 6% |
| C=CCSc1nc(-c2ccncc2)c(-c2ccc(F)cc2)[nH]1 [Compound 37] |  | IC50 [1]: 750 nM |
| N#CCSc1nc(-c2ccncc2)c(-c2ccc(F)cc2)[nH]1 [Compound 38] |  | IC50 [1]: 400 nM |
| CCSc1nc(-c2ccncc2)c(-c2ccc(F)cc2)[nH]1 [Compound 39] |  | IC50 [1]: 400 nM |
| CCCCSc1nc(-c2ccncc2)c(-c2ccc(F)cc2)[nH]1 [Compound 40] |  | IC50 [1]: 280 to 700 nM |

| SMILES | IC50 ([2]; human PBMC, LPS) [nM] | further results |
| --- | --- | --- |
| CCCCCCCCCCSc1nc(-c2ccc(F)cc2)c(-c2ccncc2)[nH]1 [Compound 41] | > 10000 |  |
| CC(=O)OCCCCc1nc(-c2ccncc2)c(-c2ccc(F)cc2)n1Cc1ccccc1 [Compound 42] |  | CPSB % inhibition ([1]; @ 5 μm): 2% |
| O=C1c2ccccc2C(=O)N1CCCCc1nc(-c2ccncc2)c(-c2ccc(F)cc2)n1Cc1ccccc1 [Compound 43] |  | CPSB % inhibition ([1]; @ 5 μm): 8% |
| CC(=O)OCCCCc1nc(-c2ccc(F)cc2)c(-c2ccncc2)n1COCC[Si](C)(C)C [Compound 44] |  | IC50 ([2]; Homo sapiens, PBMC): 150 nM |
| O=C1c2ccccc2C(=O)N1CCCCc1nc(-c2ccncc2)c(-c2ccc(F)cc2)[nH]1 [Compound 47] | 283 |  |
| O=C1c2ccccc2C(=O)N1CCCCc1nc(-c2ccc(F)cc2)c(-c2ccncc2)n1Cc1ccccc1 [Compound 48] | 1750 |  |
| OCc1nc(-c2ccc(F)cc2)c(-c2ccncc2)[nH]1 [Compound 49] | 250 |  |
| CC(=O)OCCCCc1nc(-c2ccc(F)cc2)c(-c2ccncc2)n1CCCN1C(=O)c2ccccc2C1=O [Compound 50] | 150 |  |
| O=C1c2ccccc2C(=O)N1CCCn1c(CCCCO)nc(-c2ccc(F)cc2)c1-c1ccncc1 [Compound 51] | 175 |  |
| O=C1c2ccccc2C(=O)N1CCCn1c(CCCCO)nc(-c2ccncc2)c1-c1ccc(F)cc1 [Compound 52] | 200 |  |
| O=C1c2ccccc2C(=O)N1CCCOCc1nc(-c2ccc(F)cc2)c(-c2ccncc2)n1CCCN1C(=O)c2ccccc2C1=O [Compound 53] | 175 |  |
| O=C1c2ccccc2C(=O)N1CCCOCc1nc(-c2ccncc2)c(-c2ccc(F)cc2)n1CCCN1C(=O)c2ccccc2C1=O [Compound 54] | 200 |  |
| O=C1c2ccccc2C(=O)N1CCCn1c(CO)nc(-c2ccncc2)c1-c1ccc(F)cc1 [Compound 55] | 1250 |  |
| CCCS(=O)(=O)Cc1nc(-c2ccncc2)c(-c2ccc(F)cc2)n1COCC[Si](C)(C)C [Compound 57] | 5000 |  |
| COCc1nc(-c2ccc(F)cc2)c(-c2ccncc2)n1CCCN1C(=O)c2ccccc2C1=O [Compound 58] | 75 |  |
| COCc1nc(-c2ccncc2)c(-c2ccc(F)cc2)n1CCCN1C(=O)c2ccccc2C1=O [Compound 60] | 400 |  |
| CCOCCc1nc(-c2ccc(F)cc2)c(-c2ccncc2)n1CCCN1C(=O)c2ccccc2C1=O [Compound 61] | 200 |  |
| Cc1nc(-c2ccc(F)cc2)c(-c2ccncc2)n1CCCN1C(=O)c2ccccc2C1=O [Compound 62] | 362 |  |
| Cc1nc(-c2ccncc2)c(-c2ccc(F)cc2)n1CCCN1C(=O)c2ccccc2C1=O [Compound 63] | 17 |  |
| CCc1nc(-c2ccc(F)cc2)c(-c2ccncc2)n1CCCN1C(=O)c2ccccc2C1=O [Compound 64] | 80 |  |
| CCc1nc(-c2ccncc2)c(-c2ccc(F)cc2)n1CCCN1C(=O)c2ccccc2C1=O [Compound 65] | 20 |  |
| CCc1nc(-c2ccc(F)cc2)c(-c2ccncc2)n1CCCc1ccccc1 [Compound 66] | 6 |  |

| SMILES | IC50 ([2]; human PBMC, LPS) [nM] | further results |
| --- | --- | --- |
| CCc1nc(-c2ccncc2)c(-c2ccc(F)cc2)n1CCCc1ccccc1 [Compound 67] | 300 |  |
| Cc1nc(-c2ccc(F)cc2)c(-c2ccncc2)n1CCCc1ccccc1 [Compound 68] | 1.5 |  |
| Cc1nc(-c2ccncc2)c(-c2ccc(F)cc2)n1CCCc1ccccc1 [Compound 69] | 100 |  |
| O=C1c2ccccc2C(=O)N1CCCn1cnc(-c2ccncc2)c1-c1ccc(F)cc1 [Compound 70] | 500 |  |
| O=C1c2ccccc2C(=O)N1CCCn1cnc(-c2ccc(F)cc2)c1-c1ccncc1 [Compound 71] | 39 |  |
| O=C1c2ccccc2C(=O)N1CCCCn1cnc(-c2ccncc2)c1-c1ccc(F)cc1 [Compound 72] | 300 |  |
| O=C1c2ccccc2C(=O)N1CCCCn1cnc(-c2ccc(F)cc2)c1-c1ccncc1 [Compound 73] | 500 |  |
| Fc1ccc(-c2nc(Br)n(CCCc3ccccc3)c2-c2ccncc2)cc1 [Compound 74] | 200 |  |
| Fc1ccc(-c2nc(I)n(CCCc3ccccc3)c2-c2ccncc2)cc1 [Compound 75] | 3 |  |
| O=C1c2ccccc2C(=O)N1CCCCn1c(I)nc(-c2ccncc2)c1-c1ccc(F)cc1 [Compound 76] | 800 |  |
| O=C1c2ccccc2C(=O)N1CCCCn1c(I)nc(-c2ccc(F)cc2)c1-c1ccncc1 [Compound 77] | 445 |  |
| CCCCc1cc(-c2c(-c3ccc(F)cc3)nc(CO)n2CCCc2ccccc2)ccn1 [Compound 78] | 450 |  |
| CCC(=O)Cn1cnc(-c2ccncc2)c1-c1ccc(F)cc1 [Compound 79] | 600 |  |
| CCC(=O)Cn1cnc(-c2ccc(F)cc2)c1-c1ccncc1 [Compound 80] | 200 |  |
| Fc1ccc(-c2c(-c3ccncc3)ncn2CCCc2cccnc2)cc1 [Compound 81] | 500 |  |
| Fc1ccc(-c2ncn(CCCc3cccnc3)c2-c2ccncc2)cc1 [Compound 82] | 20 |  |
| Fc1ccc(-c2c(-c3ccncc3)ncn2CCCc2ccncc2)cc1 [Compound 83] | 1000 |  |
| Fc1ccc(-c2ncn(CCCc3ccncc3)c2-c2ccncc2)cc1 [Compound 84] | 10 |  |
| Fc1ccc(-c2c(-c3ccncc3)ncn2CCOc2ccccc2)cc1 [Compound 85] | 2000 |  |
| Fc1ccc(-c2ncn(CCOc3ccccc3)c2-c2ccncc2)cc1 [Compound 86] | 40 |  |
